Measured values from patent publication US8153631B2, “Triazole compounds and uses related thereto” (Amgen Inc., priority 2003, dated 2012).

Target: T1, human HSD1 (recombinant HSD1) (Homo sapiens, UniProt P28845)
T1 construct: made in house
Assay: In vitro HSD1 activity inhibitory action, SPA of cortisone to cortisol conversion
Format: biochemical
Settings: recombinant human HSD1 0.1 μg/ml, 500 μM NADPH, 16 nM 3H cortisone, room temperature 90 min, read-out: hHSD1 IC50
Procedure: In Vitro HSD1 (Hydroxysteroid Dehydrogenase 1) Activity Inhibitory Action
The HSD1 inhibitory activity was examined by quantitative determination by an SPA (scintillation proximity assay) system of the suppressive action on the conversion from cortisone to cortisol using human HSD1 (hereinafter recombinant HSD1) expressed using a baculo-virus system as an enzyme source. For the reaction, a reagent was added to a 96 well plate (96 well Opti-plates™-96 (Packard)) to the following final concentration and a volume of 100 μl was reacted at room temperature for 90 min. The reaction solution used was 0.1 μg/ml recombinant HSD1, 500 μM NADPH, 16 nM ^3H cortisone (Amersham Biosciences, 1.78 Tbq/mol) dissolved in 0.1% BSA (Sigma)-containing PBS and the test drug was 2 μl of a compound solution (dissolved in DMSO). After 90 min, the reaction was stopped by adding PBS (40 μl, containing 0.1% BSA (Sigma)) containing 0.08 μg of anti-cortisol mouse monoclonal antibody (East Coast Biologics), 365 μg SPA PVT mouse antibody-binding beads (Amersham Biosciences) and 175 μM carbenoxolone (Sigma) to the reaction solution. After the completion of the reaction, the plate was incubated overnight at room temperature and the radioactivity was measured by Topcount (Packard). For control, the value (0% inhibition) of the well containing 2 μl of DMSO instead of the test drug was used, and for positive control, the value (100% inhibition) of the well containing carbenoxolone instead of the test drug at the final concentration of 50 μM was used. The inhibition (%) of the test drug was calculated by ((value of control−value of test drug)/(value of control−value of positive control))×100 (%). The IC50 value was analyzed using a computer-based curve fitting soft.

T1 sequence (P28845 whole entry): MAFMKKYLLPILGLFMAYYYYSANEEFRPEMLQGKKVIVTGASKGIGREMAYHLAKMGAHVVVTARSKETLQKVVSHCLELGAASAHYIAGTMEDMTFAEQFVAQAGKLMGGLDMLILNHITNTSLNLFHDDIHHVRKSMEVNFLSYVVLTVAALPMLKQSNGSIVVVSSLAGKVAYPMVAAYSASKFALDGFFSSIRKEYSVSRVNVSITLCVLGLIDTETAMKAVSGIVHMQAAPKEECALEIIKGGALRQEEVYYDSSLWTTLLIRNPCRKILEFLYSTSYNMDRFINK

Structure (SMILES)	IC50
Cn1c(N2CCC(N)CC2)nnc1C1(c2ccccc2)CC1 [Ex. 2-8]	10 to 1000 nM
Cn1c(N2CCc3ccccc3C2)nnc1C1(c2ccccc2)CC1 [Ex. 2-24]	< 10 nM
Cn1c(N2CCC(C(=O)O)CC2)nnc1C1(c2ccccc2)CC1 [Ex. 2-5]	10 to 1000 nM
CCn1c(N2CCC(Oc3ncc(Cl)cc3Cl)CC2)nnc1C1(c2ccccc2)CC1 [Ex. 2-79]	< 10 nM
C=CCn1c(N2CCC(Oc3ncc(Cl)cc3Cl)CC2)nnc1C1(c2ccccc2)CC1 [Ex. 2-75]	< 10 nM
CONC(=O)Nc1ccc(-c2nnc(C3(c4ccc(F)cc4)CC3)n2C(C)C)cc1 [Ex. 1-153]	< 10 nM
CNC(=O)C1CCN(c2ccc(-c3nnc(C4(c5ccccc5)CC4)n3C)c(Cl)c2)CC1 [Ex. 1-60]	< 10 nM
Cn1c(N2CCC(Oc3ccc(Cl)cc3Cl)CC2)nnc1C1(c2ccccc2)CC1 [Ex. 2-73]	< 10 nM
Cn1c(N2CCC(CO)(c3ccccc3)CC2)nnc1C1(c2ccccc2)CC1 [Ex. 2-17]	10 to 1000 nM
Cn1c(N2CCC(Oc3cccc(C(N)=O)c3)CC2)nnc1C1(c2ccccc2)CC1 [Ex. 2-55]	10 to 1000 nM
CC(=O)NCCn1c(C2CCN(c3c(Cl)cncc3Cl)CC2)nnc1C1(c2ccccc2)CC1 [Ex. 1-7]	10 to 1000 nM
CN(c1ncc(Cl)cc1Cl)C1CCN(c2nnc(C3(c4ccccc4)CC3)n2C)CC1 [Ex. 2-41]	10 to 1000 nM
CC(=O)NC1CCN(c2nnc(C3(c4ccccc4)CC3)n2C)CC1 [Ex. 2-9]	10 to 1000 nM
Cn1c(-c2ccc(N3CCC4(CC3)OCCO4)cc2Cl)nnc1C1(c2ccccc2)CC1 [Ex. 1-61]	10 to 1000 nM
Cn1c(-c2ccc(N3CCC(C(=O)N4CCOCC4)CC3)cc2Cl)nnc1C1(c2ccccc2)CC1 [Ex. 1-114]	< 10 nM
Cn1c(N2CCC(O)(c3ccccc3)CC2)nnc1C1(c2ccccc2)CC1 [Ex. 2-40]	10 to 1000 nM
Cn1c(-c2ccc(NC(N)=O)cc2Cl)nnc1C1(c2ccccc2)CC1 [Ex. 1-35]	< 10 nM
COC1CCN(CC(=O)Nc2ccc(-c3nnc(C4(c5ccccc5)CC4)n3C)c(Cl)c2)CC1 [Ex. 1-45]	10 to 1000 nM
CN(C)C(=O)C1CCN(c2ccc(-c3nnc(C4(c5ccccc5)CC4)n3C)c(Cl)c2)CC1 [Ex. 1-115]	< 10 nM
Cn1c(-c2ccc(Cl)cc2Cl)nnc1C1(c2ccc(F)cc2)CCCC1 [Ex. 1-123]	< 10 nM
Cn1c(N2Cc3ccccc3C2)nnc1C1(c2ccccc2)CC1 [Ex. 2-91]	< 10 nM
COC(=O)[C@H]1CC[C@H](c2nnc(C3(c4ccccc4)CC3)n2C)CC1 [Ex. 1-104]	10 to 1000 nM
Cn1c(N2CCC(Oc3ccc(C#N)cc3)CC2)nnc1C1(c2ccccc2)CC1 [Ex. 2-52]	< 10 nM
CC(C)n1c(N2CCC(Oc3ncc(Cl)cc3Cl)CC2)nnc1C1(c2ccccc2)CC1 [Ex. 2-80]	< 10 nM
Cn1c(-c2ccc(N3CCC(C(N)=O)CC3)cc2Cl)nnc1C1(c2ccccc2)CC1 [Ex. 1-109]	< 10 nM
Cn1c(N2CCC(C)(CO)CC2)nnc1C1(c2ccccc2)CC1 [Ex. 2-68]	< 10 nM
Cn1c(-c2ccc(C(=O)O)cc2Cl)nnc1C1(c2ccccc2)CC1 [Ex. 1-72]	10 to 1000 nM

Structure (SMILES)	IC50
Cn1c(-c2ccc(NC(=O)N3CCOCC3)cc2Cl)nnc1C1(c2ccccc2)CC1 [Ex. 1-30]	< 10 nM
Cn1c(C2CCN(Cc3c(Cl)cccc3Cl)CC2)nnc1C1(c2ccccc2)CC1 [Ex. 1-99]	10 to 1000 nM
Cn1c(N2CCC(Nc3ncc(Cl)cc3Cl)CC2)nnc1C1(c2ccccc2)CC1 [Ex. 2-33]	10 to 1000 nM
Cn1c(N2CCN(c3ccc(F)cc3)CC2)nnc1C1(c2ccccc2)CC1 [Ex. 2-89]	10 to 1000 nM
Cn1c(N2CCC(CO)CC2)nnc1C1(c2ccccc2)CC1 [Ex. 2-6]	< 10 nM
COC1CCN(c2nnc(C3(c4ccccc4)CC3)n2C)CC1 [Ex. 2-43]	10 to 1000 nM
Cn1c(N2CCC(Oc3ncc(Cl)cc3Cl)CC2)nnc1C1(c2ccccc2)CCCC1 [Ex. 2-81]	< 10 nM
COC(=O)CCn1c(C2CCN(c3c(Cl)cncc3Cl)CC2)nnc1C1(c2ccccc2)CC1 [Ex. 1-8]	< 10 nM
CN(C)C(=O)c1cccc(OC2CCN(c3nnc(C4(c5ccccc5)CC4)n3C)CC2)c1 [Ex. 2-57]	10 to 1000 nM
Cn1c(C2CCN(c3ncccc3Cl)CC2)nnc1C1(c2ccccc2)CCCC1 [Ex. 1-2]	< 10 nM
CN(C)CC(=O)Nc1ccc(-c2nnc(C3(c4ccccc4)CC3)n2C)c(Cl)c1 [Ex. 1-25]	< 10 nM
Cn1c(-c2ccc(N3CCOCC3)cc2Cl)nnc1C1(c2ccc(F)cc2)CC1 [Ex. 1-55]	< 10 nM
Cn1c(N2CCC(C(N)=O)CC2)nnc1C1(c2ccccc2)CC1 [Ex. 2-16]	< 10 nM
Cn1c(N2CC[S+]([O-])CC2)nnc1C1(c2ccccc2)CC1 [Ex. 2-23]	10 to 1000 nM
COC(=O)c1ccc(OC2CCN(c3nnc(C4(c5ccccc5)CC4)n3C)CC2)cc1 [Ex. 2-47]	10 to 1000 nM
Cn1c(-c2ccccc2Cl)nnc1C1(c2ccc(F)cc2)CC1 [Ex. 1-134]	< 10 nM
Cn1c(C2CCN(c3c(Cl)cncc3Cl)CC2)nnc1C1(c2ccccc2)CCCC1 [Ex. 1-13]	< 10 nM
Cn1c(-c2ccc(C(=O)N3CCOCC3)cc2Cl)nnc1C1(c2ccccc2)CC1 [Ex. 1-74]	10 to 1000 nM
Cn1c(-c2ccc(C(=O)O)cc2Cl)nnc1C1(c2ccc(F)cc2)CC1 [Ex. 1-126]	10 to 1000 nM
CN(C)c1ccc(-c2nnc(C3(c4ccccc4)CC3)n2C)c(Cl)c1 [Ex. 1-89]	< 10 nM
Cn1c(-c2ccc(NS(N)(=O)=O)cc2Cl)nnc1C1(c2ccccc2)CC1 [Ex. 1-34]	< 10 nM
CN(c1ccccn1)c1nnc(C2(c3ccccc3)CC2)n1C [Ex. 2-95]	< 10 nM
Cn1c(N2CCC(Oc3c(Cl)cncc3Cl)CC2)nnc1C1(c2ccccc2)CC1 [Ex. 2-86]	10 to 1000 nM
Cn1c(-c2ccc(NC(=O)N3CCC(O)CC3)cc2Cl)nnc1C1(c2ccccc2)CC1 [Ex. 1-42]	10 to 1000 nM
Cn1c(N2CCC(Oc3ccc(Cl)c(CO)c3)CC2)nnc1C1(c2ccccc2)CC1 [Ex. 2-63]	10 to 1000 nM
CNC(=O)CCn1c(C2CCN(c3c(Cl)cncc3Cl)CC2)nnc1C1(c2ccccc2)CC1 [Ex. 1-10]	10 to 1000 nM
COC(=O)C1(c2ccccc2)CCN(c2nnc(C3(c4ccccc4)CC3)n2C)CC1 [Ex. 2-2]	10 to 1000 nM

Structure (SMILES)	IC50
Cn1c(-c2ccc(N3CCOC3=O)cc2Cl)nnc1C1(c2ccc(F)cc2)CC1 [Ex. 1-118]	< 10 nM
Cn1c(-c2ccc(C(=O)NCC(F)(F)F)cc2Cl)nnc1C1(c2ccccc2)CC1 [Ex. 1-83]	10 to 1000 nM
Cn1c(N2CCC(C)(C(N)=O)CC2)nnc1C1(c2ccccc2)CC1 [Ex. 2-70]	< 10 nM
COC(=O)Nc1ccc(Cl)c(-c2nnc(C3(c4ccc(F)cc4)CC3)n2C)c1 [Ex. 1-150]	< 10 nM
Cn1c(-c2ccc(NCCO)cc2Cl)nnc1C1(c2ccc(F)cc2)CC1 [Ex. 1-120]	< 10 nM
Cn1c(-c2ccc(N3CCC(CO)CC3)cc2Cl)nnc1C1(c2ccccc2)CC1 [Ex. 1-108]	< 10 nM
NCCn1c(C2CCN(c3c(Cl)cncc3Cl)CC2)nnc1C1(c2ccccc2)CC1 [Ex. 1-6]	10 to 1000 nM
Cn1c(N2CCC(=O)CC2)nnc1C1(c2ccccc2)CC1 [Ex. 2-48]	< 10 nM
CC(C)C(=O)Nc1ccc(-c2nnc(C3(c4ccccc4)CC3)n2C)c(Cl)c1 [Ex. 1-29]	< 10 nM
Cn1c(N2CCCCC2)nnc1C1(c2ccccc2)CC1 [Ex. 2-14]	< 10 nM
Cn1c(-c2ccc(N3CCC(C(=O)NCC(F)(F)F)CC3)cc2Cl)nnc1C1(c2ccccc2)CC1 [Ex. 1-116]	< 10 nM
Cn1c(-c2ccc(N3CCCC(O)C3)cc2Cl)nnc1C1(c2ccccc2)CC1 (stereo not shown) [Ex. 1-66]	< 10 nM
Cn1c(N2CCS(=O)(=O)CC2)nnc1C1(c2ccccc2)CC1 [Ex. 2-22]	10 to 1000 nM
Cn1c(-c2ccc(N3CCOC3=O)cc2Cl)nnc1C1(c2ccccc2)CC1 [Ex. 1-36]	< 10 nM
Cn1c(N2CCC(Cc3ccccc3)CC2)nnc1C1(c2ccccc2)CC1 [Ex. 2-34]	10 to 1000 nM
Cn1c(-c2ccc(OCCN)cc2Cl)nnc1C1(c2ccccc2)CC1 [Ex. 1-130]	10 to 1000 nM
CC(=O)N(C)C1CCN(c2nnc(C3(c4ccccc4)CC3)n2C)CC1 [Ex. 2-13]	10 to 1000 nM
Cn1c(N2CCC(Oc3cccc(CO)c3)CC2)nnc1C1(c2ccccc2)CC1 [Ex. 2-54]	10 to 1000 nM
Cn1c(N2CCC(NC(=O)c3ccc(Cl)cc3Cl)CC2)nnc1C1(c2ccccc2)CC1 [Ex. 2-10]	10 to 1000 nM
Cn1c(-c2ccc(C(C)(O)C(F)(F)F)cc2Cl)nnc1C1(c2ccccc2)CC1 (stereo not shown) [Ex. 1-102]	< 10 nM
COc1ccc(-c2nnc(C3(c4ccccc4)CC3)n2C)c(Cl)c1 [Ex. 1-76]	< 10 nM
COCCNC(=O)c1ccc(-c2nnc(C3(c4ccccc4)CC3)n2C)c(Cl)c1 [Ex. 1-85]	10 to 1000 nM
Cn1c(N2CCC(Oc3ncccc3Cl)CC2)nnc1C1(c2ccccc2)CC1 [Ex. 2-38]	< 10 nM
Cc1ccc(C2(c3nnc(N4CCC(Oc5ncc(Cl)cc5Cl)CC4)n3C)CC2)cc1 [Ex. 2-82]	10 to 1000 nM
Cn1c(-c2ccc(C(N)=O)cc2Cl)nnc1C1(c2cccs2)CC1 [Ex. 1-144]	< 10 nM
